Measured values published in patent publication EP4772505A1, “COMPOUND FOR DEGRADING ANDROGEN RECEPTOR AND MEDICAL USE THEREOF” (Ubix Therapeutics, Inc., priority 2023, dated 2025).
Substitutions are numbered along the chain they refer to. Where two headings read alike, the source gives them in different places.

What was measured:
Androgen Receptor (AR) [1] = target: T1, Androgen Receptor (AR) (Homo sapiens, UniProt P10275); test: Measurement of AR protein degradation in VCaP cells by Western blotting; type: cell-based; set-up: endogenous in cells; host or cells: VCaP; details: VCaP, 20 h, read-out: AR degradation in VCaP cells (%)
T1 sequence (P10275 1-920): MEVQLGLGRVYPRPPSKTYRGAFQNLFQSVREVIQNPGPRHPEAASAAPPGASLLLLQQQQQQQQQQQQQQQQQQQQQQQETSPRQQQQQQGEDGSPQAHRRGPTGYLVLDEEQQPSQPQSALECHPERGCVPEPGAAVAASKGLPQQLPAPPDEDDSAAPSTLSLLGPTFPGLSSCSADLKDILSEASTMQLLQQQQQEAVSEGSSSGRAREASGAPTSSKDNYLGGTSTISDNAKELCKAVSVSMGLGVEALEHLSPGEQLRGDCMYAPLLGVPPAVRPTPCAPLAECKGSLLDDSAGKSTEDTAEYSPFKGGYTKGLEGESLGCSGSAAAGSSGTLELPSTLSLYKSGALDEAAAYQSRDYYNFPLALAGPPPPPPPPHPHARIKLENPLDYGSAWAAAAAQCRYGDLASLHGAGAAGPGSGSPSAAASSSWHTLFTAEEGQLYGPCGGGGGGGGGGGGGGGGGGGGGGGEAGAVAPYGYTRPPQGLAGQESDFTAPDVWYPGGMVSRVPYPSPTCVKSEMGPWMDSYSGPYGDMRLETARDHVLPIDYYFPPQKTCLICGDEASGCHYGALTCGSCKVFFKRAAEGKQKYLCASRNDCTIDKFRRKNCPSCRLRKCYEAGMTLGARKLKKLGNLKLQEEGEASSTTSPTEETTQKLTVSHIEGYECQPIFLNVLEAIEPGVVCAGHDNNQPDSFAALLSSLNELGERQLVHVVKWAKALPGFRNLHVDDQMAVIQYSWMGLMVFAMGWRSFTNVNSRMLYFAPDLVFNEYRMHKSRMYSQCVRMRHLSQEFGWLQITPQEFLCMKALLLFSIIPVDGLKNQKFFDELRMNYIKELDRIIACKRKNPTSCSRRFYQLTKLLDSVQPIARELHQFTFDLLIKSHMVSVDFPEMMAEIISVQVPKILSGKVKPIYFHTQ
Protocol: (§1) The amount of AR protein present in LNCaP or VCaP cells was measured after treating them with the synthesized compound. The amount of AR protein was measured using Western blotting. The protocol for the experiments using LNCaP or VCaP cells was as follows.
(§2) [Culture] LNCaP cells were resuspended in RPMI1640 medium + HEPES (Hyclone, SH30255.01), 10% FBS (Hyclone, SV30207.02), and 1% Penicillin-streptomycin (Welgene, LS 202-02). 3 x 10^5 cells/mL were seeded in 12-well plates (1 mL per well) and cultured for 3 days. VCaP cells were resuspended in IMDM MEDIUM (Hyclone, SH30228.01), 20% FBS (Hyclone, SV30207.02), and 1% Penicillin-streptomycin (Welgene, LS 202-02), seeded at 9 x 10^5/mL in 1 mL per 12-well plate, and cultured for 3 days.
(§3) [Compound Treatment] 10 µL of 100x stock (e.g., 0.1, 1, 10 µM) compound solution at the final compound treatment concentration (e.g., 0.001, 0.01, 0.1 µM) was added to each well in 1 mL media, and cells were harvested after 20 hours. For DC50 measurement, 100x stock (0.01, 0.1, 1, 10, 100, 1000 µM) compound solutions at the final compound treatment concentration (0.0001, 0.001, 0.01, 0.1, 1, 10 µM) were used.
(§4) [Cell lysis] The cell pellet was suspended using 1% SDS lysis buffer (50 mM Tris, 1 mM EDTA, 1% SDS, pH 8.0, 0.5 mM PMSF, 1x Protease/Phosphatase inhibitor Cocktail (Cell Signaling Technology, 5872S)), and sonication (70% AMP, 10 cycles (30 sec ON/59 sec OFF)) was performed. After centrifugation at 4°C and 20,000 g for 20 minutes, the cell lysate was obtained and transferred to a new tube.
(§5) [Protein Quantification] A BCA protein assay (SMART™ BCA Protein Assay Kit, iNtRON Biotechnology, 21071) was performed using a 96-well microplate. 5 µL of cell lysate and 5 µL of 1% SDS lysis buffer were added to each well of the 96-well plate, followed by an additional 200 µL of BCA reagent (Reagent A: Reagent B = 50:1). The wells were incubated at 37°C for 30 minutes and cooled to room temperature for 10 minutes. After shaking for 10 seconds, the absorbance was measured at a wavelength of 562 nm. The unknown protein concentration was determined using a BSA standard curve (0, 0.125, 0.25, 0.5, 1, 2 mg/mL). Western blotting samples were prepared by mixing cell lysate, 1% SDS lysis buffer, 4x NuPAGE™ LDS Sample buffer (Invitrogen, NP0008), and 10X NuPAGE™ Sample Reducing Agent (Invitrogen, NP0009) and boiling at 70°C for 10 minutes.
(§6) [Electrophoresis] 10 µg of protein sample was loaded into each well of a NuPAGE™ 4 to 12%, Bis-Tris, 1.0 mm Mini Protein Gel, 15-well, 17-well, or 26-well (Invitrogen, NP0323BOX, NP0329BOX, or WG1403BOX) and electrophoresed for 40 minutes using NuPAGE™MES SDS Running Buffer (Invitrogen, NP0002) at 200 V (constant V).
(§7) [Transfer] Transfer was performed for 15 or 18 minutes using the electrophoresed gel and the Trans-Blot® Turbo™ Transfer Starter System (Bio-RAD, #17001918, Mini Nitrocellulose) at 1.3 A (constant A) and 25 V (limit V). To confirm protein transfer, 15 mL of Ponceau S solution (Sigma, P7170-1L) was used to stain for 1 minute, and then washed to check the degree of transfer.
(§8) [Blocking] The membrane for AR and GAPDH detection was blocked with 5% skim milk/0.2% TBST (Skim milk: BD, 232100/ 20X TBS: Biosesang, TR2008-100-00/ 10% Tween 20 Solution: Bio-RAD, #161-0781) for 45 minutes.
(§9) [Antibodies and Detection] Primary AR antibody (Androgen Receptor: CST, 5153S) was mixed with 5% skim milk/0.2% TBST at a ratio of 1:1,000 and reacted at room temperature for 3 hours or at 4°C overnight. Primary GAPDH antibody (CST, 2118S) was mixed with 5% skim milk/0.2% TBST at a ratio of 1:2,000 and reacted at room temperature for 3 hours or at 4°C overnight. Afterwards, TBST (0.2% Tween 20) was used for washing three times every 5 minutes. Secondary antibody to AR antibody, Anti-rabbit IgG, HRP-linked Antibody (CST, 7074S), was mixed with 5% skim milk/0.2% TBST at a ratio of 1:5,000 and reacted at room temperature for 45 minutes. […]

Androgen Receptor (AR) [2] = target: T2, Androgen Receptor (AR) (Homo sapiens, UniProt P10275, T878A); test: Measurement of AR protein degradation in LNCaP cells by Western blotting; type: cell-based; details: read-out: AR degradation in LNCaP cells (%)
T2 construct: endogenous in cells; host or cells: LNCaP
T2 sequence (P10275 1-920 T878A): T1 sequence (P10275 1-920) with T878A
Protocol: as §1, §2, §3, §4, §5, §6, §7, §8, §9

Question: `N#Cc1ccc(N2CCC(C(=O)Nc3ccc(OC4CCN(CC5CCN(c6ccc(NC7CCC(=O)NC7=O)cc6F)CC5)CC4)cn3)CC2)c(F)c1C(F)(F)F` (stereo not drawn) [Example 11, 1-(4-cyano-2-fluoro-3-(trifluoromethyl)phenyl)-N-(5-((1-((1-(4-((2,6-dioxopiperidin-3-yl)amino)-2-fluorophenyl)piperidin-4-yl)methyl)piperidin-4-yl)oxy)pyridin-2-yl)piperidine-4-carboxamide] was tested. Which Dmax at 0.01 µM (Androgen Receptor (AR) [1]) did it give?
Answer: The Dmax at 0.01 µM was 89%.

Question: What about the Dmax at 0.1 µM (Androgen Receptor (AR) [1]) of the same molecule?
Answer: The Dmax at 0.1 µM was 99%.

Question: With `N#Cc1ccc(N2CCC(C(=O)Nc3ccc(OC4CCN(CC5CCN(c6ccc(NC7CCC(=O)NC7=O)cc6F)CC5)CC4)nn3)CC2)c(F)c1C(F)(F)F` (stereo not drawn) [Example 14, 1-(4-cyano-2-fluoro-3-(trifluoromethyl)phenyl)-N-(6-((1-((1-(4-((2,6-dioxopiperidin-3-yl)amino)-2-fluorophenyl)piperidin-4-yl)methyl)piperidin-4-yl)oxy)pyridazin-3-yl)piperidine-4-carboxamide] as the molecule, how does the Dmax at 0.01 µM (Androgen Receptor (AR) [1]) read?
Answer: The Dmax at 0.01 µM was 87%.

Question: And the Dmax at 0.1 µM (Androgen Receptor (AR) [1])?
Answer: The Dmax at 0.1 µM was 95%.

Question: For `N#Cc1ccc(N2CCC(C(=O)Nc3ccc(OC4CCN(C5CCN(c6ccc(NC7CCC(=O)NC7=O)cc6F)CC5)CC4)cn3)CC2)cc1C(F)(F)F` (stereo not drawn) [Example 4, 1-(4-cyano-3-(trifluoromethyl)phenyl)-N-(5-((1'-(4-((2,6-dioxopiperidin-3-yl)amino)-2-fluorophenyl)-[1,4'-bipiperidin]-4-yl)oxy)pyridin-2-yl)piperidine-4-carboxamide], which Dmax at 0.01 µM (Androgen Receptor (AR) [2]; LNCaP, 20 h) is on record?
Answer: The Dmax at 0.01 µM was 76%.

Question: What about the Dmax at 0.1 µM (Androgen Receptor (AR) [2]; LNCaP, 20 h) of the same molecule?
Answer: The Dmax at 0.1 µM was 93%.

Question: Which Dmax at 0.01 µM (Androgen Receptor (AR) [2]; LNCaP, 20 h) does the source give for `N#Cc1ccc(N2CCN(C(=O)Nc3ccc(OC4CCN(CC5CCN(c6ccc(NC7CCC(=O)NC7=O)cc6F)CC5)CC4)cn3)CC2)cc1C(F)(F)F` (stereo not drawn) [Example 6, 4-(4-cyano-3-(trifluoromethyl)phenyl)-N-(5-((1-((1-(4-((2,6-dioxopiperidin-3-yl)amino)-2-fluorophenyl)piperidin-4-yl)methyl)piperidin-4-yl)oxy)pyridin-2-yl)piperazine-1-carboxamide] here?
Answer: The Dmax at 0.01 µM was 84%.

Question: What about the Dmax at 0.1 µM (Androgen Receptor (AR) [2]; LNCaP, 20 h) of the same molecule?
Answer: The Dmax at 0.1 µM was 99%.

Question: For `N#Cc1ncc(N2CCC(C(=O)Nc3ccc(OC4CCN(CC5CCN(c6ccc(NC7CCC(=O)NC7=O)cc6F)CC5)CC4)cn3)CC2)cc1C(F)(F)F` (stereo not drawn) [Example 5, 1-(6-cyano-5-(trifluoromethyl)pyridin-3-yl)-N-(5-((1-((1-(4-((2,6-dioxopiperidin-3-yl)amino)-2-fluorophenyl)piperidin-4-yl)methyl)piperidin-4-yl)oxy)pyridin-2-yl)piperidine-4-carboxamide], which Dmax at 0.01 µM (Androgen Receptor (AR) [2]; 10 nM compound, 20 hours, LNCaP cells) is on record?
Answer: Its Dmax at 0.01 µM is 63%.

Question: And the Dmax at 0.1 µM (Androgen Receptor (AR) [2]; 100 nM compound, 20 hours, LNCaP cells)?
Answer: Its Dmax at 0.1 µM is 97%.

Question: With `N#Cc1ccc(N2CCC(C(=O)Nc3ccc(OC4CCN(CC5CCN(c6ccc(NC7CCC(=O)NC7=O)cc6C(F)(F)F)CC5)CC4)cn3)CC2)cc1C(F)(F)F` (stereo not drawn) [Example 18, 1-(4-cyano-3-(trifluoromethyl)phenyl)-N-(5-((1-((1-(4-((2,6-dioxopiperidin-3-yl)amino)-2-(trifluoromethyl)phenyl)piperidin-4-yl)methyl)piperidin-4-yl)oxy)pyridin-2-yl)piperidine-4-carboxamide] as the molecule, how does the Dmax at 0.01 µM (Androgen Receptor (AR) [2]; LNCaP, 20 h) read?
Answer: The Dmax at 0.01 µM was 51%.

Question: What about the Dmax at 0.1 µM (Androgen Receptor (AR) [2]; LNCaP, 20 h) of the same molecule?
Answer: The Dmax at 0.1 µM was 98%.
